Results taken from paper PMC11088877, “AMP-activated protein kinase can be allosterically activated by ADP but AMP remains the key activating ligand” (Biochemical Journal, 2024).
Where two headings read alike, the source gives them in different places.

What was measured:
[1] = molecular target: T1, human α2β2γ1 complex, CBS1 mutant (L129D/V130D) (Homo sapiens, UniProt P54619+P54646, L129D/V130D); test: AMPK inactivation and Thr172 dephosphorylation by PPM1A, CBS1 mutant; assay type: biochemical; conditions: 300 µM nucleotide, absence of ATP
T1 construct: made in house; host or cells: Escherichia coli
Description: (§1) The relative roles of the three CBS sites in the other two mechanisms of activation of AMPK by AMP or ADP, i.e. promotion of Thr172 phosphorylation by LKB1, and protection against Thr172 dephosphorylation by protein phosphatases, have not been examined previously. As expected, incubation of the α2β2γ1 AMPK complex with a fixed, limiting amount of purified LKB1:STRADα:MO25α complex in the presence of 200 µM Mg.ATP^2− caused a large degree of activation (Figure 5A) and phosphorylation (Figure 5B) of AMPK (unphosphorylated α2β2γ1 complex), which were stimulated more than 2-fold by 300 µM AMP and 1.6-fold by 300 µM ADP.
Figure 6. Effects of AMP or ADP on AMPK inactivation and Thr172 dephosphorylation by PP2Cα (PPM1A). Human α2β2γ1 complexes (WT, or with L129D/V130D, V276G/L277G or I312G mutations affecting CBS1, CBS3 or CBS4 respectively), all phosphorylated on Thr172, were incubated with a fixed concentration of PP2Cα (PPM1A) in the presence or absence of AMP or ADP (both 300 µM) as described in the Materials and methods section. After the incubation, aliquots were withdrawn for (A) AMPK assay or (B) Western blots. […] For (B), due to a limit on the number of lanes that could be run on one gel, single replicates from the triplicate assays were analysed. […]

[2] = molecular target: T2, unphosphorylated human α2β2γ1 complex (WT) (Homo sapiens, UniProt P54619+P54646); test: AMPK activation and Thr172 phosphorylation by the LKB1:STRADα:MO25α complex, WT; assay type: biochemical; conditions: 300 µM nucleotide, 200 µM Mg.ATP2−
T2 construct: made in house; host or cells: Escherichia coli
Description: as §1
(§2) Figure 5. Effects of AMP or ADP on AMPK activation and Thr172 phosphorylation by the LKB1:STRADα:MO25α complex. Unphosphorylated human α2β2γ1 complexes (WT, or with L129D/V130D, V276G/L277G or I312G mutations affecting CBS1, CBS3 or CBS4 respectively) were incubated with ATP and a fixed concentration of the LKB1:STRADα:MO25α complex in the presence or absence of AMP or ADP (both 300 µM), as described in the Materials and methods section. After the incubation aliquots were withdrawn for (A) AMPK assay or (B) Western blots. […] For (B), due to a limit on the number of lanes that could be run on one gel, single replicates from the triplicate assays were analysed. […]

[3] = molecular target: bacterially expressed AMPK heterotrimers (γ subunit CBS sites); conditions: cited from earlier work
[4] = tested on: bacterially expressed AMPK; conditions: 5 mM Mg2+, 200 µM ATP, cited from earlier work
[5] = molecular target: T3, human α2β2γ1 complex, CBS4 mutant (I312G) (Homo sapiens, UniProt P54619+P54646, I312G); test: AMPK activation and Thr172 phosphorylation by the LKB1 complex, CBS4 mutant; assay type: biochemical; conditions: 300 µM nucleotide, 200 µM ATP
T3 construct: made in house; host or cells: Escherichia coli
Description: as §1, §2

[6] = in the presence of Mg2+ and staurosporine, read-out: estimated Kd at the CBS3 site

T1 sequence (P54619 whole entry L129D/V130D): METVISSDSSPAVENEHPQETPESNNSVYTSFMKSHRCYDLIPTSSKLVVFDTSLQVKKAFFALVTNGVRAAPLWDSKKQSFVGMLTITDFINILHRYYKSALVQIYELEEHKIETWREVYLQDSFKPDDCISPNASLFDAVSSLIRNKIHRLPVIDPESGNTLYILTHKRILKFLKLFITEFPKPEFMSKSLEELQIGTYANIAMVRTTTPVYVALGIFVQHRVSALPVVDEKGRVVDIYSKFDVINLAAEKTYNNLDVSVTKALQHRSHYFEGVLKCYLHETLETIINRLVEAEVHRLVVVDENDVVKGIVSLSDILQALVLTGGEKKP
T1 sequence (P54646 whole entry): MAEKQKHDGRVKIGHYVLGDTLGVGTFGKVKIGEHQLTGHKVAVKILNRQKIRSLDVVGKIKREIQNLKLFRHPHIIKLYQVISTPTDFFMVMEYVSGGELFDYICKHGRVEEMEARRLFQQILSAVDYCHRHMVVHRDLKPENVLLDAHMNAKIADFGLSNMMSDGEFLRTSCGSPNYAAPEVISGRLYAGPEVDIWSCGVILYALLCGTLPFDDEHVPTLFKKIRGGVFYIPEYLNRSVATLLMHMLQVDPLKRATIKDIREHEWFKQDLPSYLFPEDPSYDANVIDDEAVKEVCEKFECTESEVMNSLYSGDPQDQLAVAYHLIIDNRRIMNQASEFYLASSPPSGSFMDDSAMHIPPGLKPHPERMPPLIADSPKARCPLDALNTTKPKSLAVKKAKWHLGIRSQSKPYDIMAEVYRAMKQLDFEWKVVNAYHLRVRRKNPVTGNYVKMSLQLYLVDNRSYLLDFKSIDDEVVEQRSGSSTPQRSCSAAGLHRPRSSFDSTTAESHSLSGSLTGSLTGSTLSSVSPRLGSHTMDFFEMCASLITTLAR
T1 sequence (O43741 whole entry partner): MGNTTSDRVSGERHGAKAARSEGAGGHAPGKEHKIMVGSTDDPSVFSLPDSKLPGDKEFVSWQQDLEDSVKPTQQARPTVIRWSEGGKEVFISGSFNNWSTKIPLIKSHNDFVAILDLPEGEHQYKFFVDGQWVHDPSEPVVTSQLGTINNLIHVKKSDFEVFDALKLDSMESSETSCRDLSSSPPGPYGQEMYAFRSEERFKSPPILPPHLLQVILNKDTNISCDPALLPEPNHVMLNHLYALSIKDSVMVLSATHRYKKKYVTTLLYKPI
T3 sequence (P54619 whole entry I312G): as the sequence (P54619 whole entry L129D/V130D) above, with D129L, D130V, I312G counted along it
T3 sequence (P54646 whole entry): as the sequence (P54646 whole entry) above
T3 sequence (O43741 whole entry partner): as the sequence (O43741 whole entry partner) above
T2 sequence (P54619 whole entry): as the sequence (P54619 whole entry L129D/V130D) above, with D129L, D130V counted along it
T2 sequence (P54646 whole entry): as the sequence (P54646 whole entry) above
T2 sequence (O43741 whole entry partner): as the sequence (O43741 whole entry partner) above

**Q.** For `Nc1ncnc2c1ncn2[C@@H]1O[C@H](COP(=O)(O)OP(=O)(O)O)[C@@H](O)[C@H]1O` [ADP], which “protective effect of nucleotide against PPM1A in the mutant” value [1] is on record?
**A.** The value was “unaffected”.

**Q.** What about the “stimulation of activation and phosphorylation of AMPK by LKB1:STRADα:MO25α complex” value [2] of the same compound?
**A.** The value was 1.6 fold.

**Q.** And the Kd [3, 6]?
**A.** The Kd was 12 to 24 µM.

**Q.** And the “effect on kinase activity” value ([4]; 200 µM ADP)?
**A.** The value was “a small inhibition”.

**Q.** What about the allosteric activation ([4]; any ADP concentration up to 200 µM) of the same compound?
**A.** The allosteric activation was “no allosteric activation”.

**Q.** And the “effect of nucleotide on activation/phosphorylation by LKB1 in the mutant” value [5]?
**A.** Its value is “abolished”.

**Q.** Which “protective effect of nucleotide against PPM1A in the mutant” value [1] does the source give for `Nc1ncnc2c1ncn2[C@@H]1O[C@H](COP(=O)(O)O)[C@@H](O)[C@H]1O` [AMP] here?
**A.** The value was “unaffected”.

**Q.** And the “stimulation of activation and phosphorylation of AMPK by LKB1:STRADα:MO25α complex” value [2]?
**A.** Its value is “more than 2 fold”.

**Q.** And the Kd [3, 6]?
**A.** Its Kd is 1 to 2 µM.

**Q.** What about the Kd ([3]; various bacterially expressed heterotrimers, read-out: Kd, AMP-binding site of high affinity) of the same compound?
**A.** The Kd was 2 to 4 µM.

**Q.** What about the Kd ([3]; various bacterially expressed heterotrimers, read-out: Kd, AMP-binding site of low affinity) of the same compound?
**A.** The Kd was 40 to 400 µM.

**Q.** What about the allosteric activation ([4]; 200 µM AMP) of the same compound?
**A.** Its allosteric activation is about 2 fold.

**Q.** What about the “effect of nucleotide on activation/phosphorylation by LKB1 in the mutant” value [5] of the same compound?
**A.** The value was “abolished”.
